Assay results taken from PubChem BioAssay AID1508591.

Details: rat; liver microsomes; pH 7.4; 15.0 min; 1.0 µM

| Compound | half-life [min] |
| --- | --- |
| O=C1Nc2ccccc2/C1=C\c1cc(F)c(O)c(F)c1 | 23 |
| O=C(Nc1ncc(Cc2ccc(C(F)(F)F)cc2)s1)c1ccco1 | > 30 |
| COCC(C)Nc1ncnc2c1cnn2-c1ccc(C)c(C)c1 (stereo not given) | 23.7 |
| Cc1ccc(S(=O)(=O)Nc2ccccc2Nc2nc(-c3ccccc3)cs2)cc1 | 1.7 |
| COc1ccc(OC)c(C(=O)Nc2nc(-c3ccccc3)cs2)c1 | 20 |
| CCc1ccc(NC(=O)c2[nH]c(C)c(C(C)=O)c2C)cc1S(=O)(=O)Nc1cccc(C#N)c1 | 6.1 |
| Cc1cnc(CNc2nc(-c3ccccc3Cl)nc3ccccc23)cn1 | 20 |
| CCCCn1cnc2cc(NC(=O)c3cc(OC)c(OC)c(OC)c3)ccc21 | > 30 |
| O=C(Nc1cn[nH]c1-c1nc2ccc(CN3CCOCC3)cc2[nH]1)NC1CC1 | > 30 |
| Cc1cccc(-n2cnc3cc(C(=O)N4CCC(Br)CC4)ccc32)c1 | 2.5 |
| Fc1ccc(Oc2nc(-c3ccncc3)nc3ccccc23)cc1F | 15 |
| O=C(O)c1ccccc1C(=O)Nc1ccc(-c2ccccc2)cc1 | > 30 |
| O=C(Nc1ccc([S+](=O)([O-])Nc2nccs2)cc1)c1ncn[nH]1 | > 30 |
| CSc1nnc2c3ccccc3n(CCc3ccccc3)c2n1 | 1.69 |
| COc1ccc(Cl)cc1NC(=O)c1sc2nc3c(cc2c1N)N1CCC3CC1 | 26.4 |
| NS(=O)(=O)c1ccc(NC(=O)c2cc3ncccn3n2)cc1 | > 30 |
| COc1ncccc1-c1cc2c(ccn2CC2CCN([S+](C)(=O)[O-])CC2)c(N2CCOCC2)n1 | 13.9 |
| COc1ccccc1Nc1ccnc(N2CCN(C(=O)c3ccccc3Cl)CC2)n1 | 7.9 |
| Cc1ccnc(NC(=S)N2CCN(c3ccc(Cl)cc3Cl)CC2)c1 | > 30 |
| COc1ccc(NC(=O)c2[nH]c(C)c(C(C)=O)c2C)cc1S(=O)(=O)N1CCCCC1 | 6 |
| CC(C)c1ccccc1-c1ncc(F)c(NC(C)(C)c2ccc(-n3ccnn3)cc2)n1 | 1.6 |
| O=S(=O)(Nc1nc2ccccc2s1)c1ccc(NCc2cccc(Cl)c2O)cc1 | > 30 |
| CC(=O)c1c(C)c(C(=O)Nc2cccc([S+](=O)([O-])N3CCCCCC3)c2)n(C)c1C | 1.4 |
| CNC(=O)c1nn(C)c2c1C(C)(C)Cc1cnc(Nc3ccc(N4CCN(C)CC4)cc3)nc1-2 | > 30 |
| O=c1[nH]c(C2CCN(CC3CCCCC3)CC2)nn1Cc1ccccc1 | 25.3 |
| COc1ccc(OC)c(CNc2ncnc3onc(C)c23)c1 | 5.68 |
| O=C(Nc1nc(-c2ccc(Cl)s2)cs1)c1cccs1 | 19.5 |

| Compound | half-life [min] |
| --- | --- |
| COc1cccc(CNc2ccc([S+](=O)([O-])Nc3ccccc3)cc2)c1Cl | 2.4 |
| CCCCCNc1oc(-c2cccc3ccccc23)nc1C#N | 2.1 |
| Cc1ccc2nc(-c3cc(NC(=O)c4ccc5c(c4)OCCO5)ccc3Cl)oc2c1 | > 30 |
| O=C(C1CCN(c2nc(-c3ccc(Br)cc3)cs2)CC1)N1CCNCC1 | > 30 |
| CC1=C(C(=O)Nc2ccccc2)C(c2ccccc2Br)N=C(Nc2nc3ccccc3o2)N1 (stereo not given) | 27 |
| COc1cccc(CN2CCNc3cc(Nc4ccccc4)ncc3C2)c1 | 1.58 |
| Cc1nc(NC(=O)C2CC(=O)N(c3n[nH]c4cc(Br)ccc34)C2)sc1C (stereo not given) | 18.5 |
| Nc1ccccc1CNc1ccc(S(=O)(=O)Nc2nccs2)cc1 | > 30 |
| N#Cc1cc(NC(=O)Nc2nnc(-c3ccncc3)s2)ccc1-c1cn[nH]c1 | > 30 |
| O=[N+]([O-])c1cccnc1N/N=C/c1ccccc1O | 7.7 |
| CC(C)Oc1ccccc1C(=O)Nc1nc(-c2ccccc2)cs1 | 9 |
| CC(=O)Nc1ccc(C(=O)Nc2ccc3c(c2)N(C2CCCC2)C(=O)c2ccccc2S3)cc1 | 2.21 |
| O=C(NCCCN1CCCC1=O)c1ccc(-c2ncc3cnc(-c4ccccc4)cn23)cc1 | > 30 |
| O=C(Nc1ncc(Cc2ccc(C(F)(F)F)cc2)s1)c1cccc(-c2ccccc2)c1 | > 30 |
| CCOC(=O)c1nc(Nc2ccc(N3CCC(C)CC3)cc2)c2ccccc2n1 | 1.62 |
| CCn1nnnc1Sc1ncnc2scc(-c3ccc(C)cc3)c12 | 1.4 |
| CCc1nc2c(sc3nc4c(cc32)COC(C)(C)C4)c(=O)n1Cc1ccco1 | 6.88 |
| Cc1ccc2[nH]c(-c3ccccc3)cc(=O)c2c1 | 15.9 |
| NC(=O)C1CCN(c2nnc(-c3ccc(Br)cc3)s2)CC1 | 7.89 |
| COc1ccc(-c2nc3c(c(SCC(=O)Nc4ccc(C(=O)O)cc4)n2)Cc2ccccc2O3)cc1 | > 30 |
| CN(C)CCNC(=O)c1nc2nc(-c3ccccc3)c(-c3cccc(F)c3)cc2n1C | > 30 |
| Cc1nn2c(c1-c1ccccc1-c1ccccc1)N(Cc1ccc(O)cc1)CCC2 | 1.97 |
| CCOc1ccccc1C(=O)Nc1cccnc1C(=O)Nc1cccc(S(=O)(=O)C(F)(F)F)c1 | > 30 |
| COc1cc(Nc2nc(-c3ccncc3)nc3ccccc23)ccc1Cl | 12 |
| COc1ccc(-n2nc(C)c([C@@H]3C=C[C@@H](NCc4ccc(F)cc4)C3)c2C)cc1 | 6.66 |
| O=C(Nc1nc(-c2ccc(F)cc2)cs1)c1ccncc1NS(=O)(=O)c1ccccc1Cl | > 30 |
| Cc1c(-c2nsc(NC(=O)c3cccc(Cl)c3)n2)nnn1-c1ccccc1C(F)(F)F | > 30 |

| Compound | half-life [min] |
| --- | --- |
| COc1ccc(C2=Nc3ccc(C)cc3C(c3ccccc3)N2CC(=O)NN)cc1 (stereo not given) | 5.3 |
| O=c1cc(CN2CCCN(c3ccc(C(F)(F)F)cn3)CC2)nc2ccccn12 | 8.7 |
| C=CCc1ccc(O)c(-c2ccc(O)c(CC=C)c2)c1 | 2.36 |
| CC(C)(C)C1CCc2[nH]c3ccccc3c(=O)c2C1 (stereo not given) | 18.7 |
| Cc1cc(-c2nnc3n2CCCCC3)c(C)n1-c1ccc(C(C)(C)C)cc1 | 1.9 |
| COc1ccc(C(=O)N2CCCC(c3nn(-c4ccc(OC)cc4)c(=O)[nH]3)C2)cc1 (stereo not given) | > 30 |
| CSc1ccccc1-c1ccc(Nc2nc(-c3ccncc3)nc3ccccc23)cc1F | 5.1 |
| Fc1ccc(-c2ccc(Nc3nc(-c4ccncc4)nc4ccccc34)cc2F)cc1 | > 30 |
| COc1ccc(-c2nc(CS(=O)CC(=O)N3CCC4(CC3)OCCO4)c(C)o2)cc1 (stereo not given) | > 30 |
| Cc1ccc(NS(=O)(=O)c2c(C)[nH]c(C)c2C(=O)N2CCCC2)cc1Cl | 1.03 |
| Fc1ccc(Nc2nc(-c3ccccc3)nc3ccccc23)cc1F | > 30 |
| Cc1cc(C)nc(NC(=S)N2CCN(c3ccc(C(F)(F)F)cc3[N+](=O)[O-])CC2)c1 | > 30 |
| NC(=O)C1CCN(c2nccc(-c3ccc(Br)cc3)n2)CC1 | 19.3 |
| Cn1c2ccccc2c(=O)c2c(=O)n(-c3ccccc3)c(C3CCCCC3)nc21 | > 30 |
| COc1ccccc1C(=O)Nc1nc2nc(C)cc(=O)n2[nH]1 | 26 |
| O=C(Cn1ccn2nc3c(c2c1=O)CCCCC3)Nc1ccc2c(c1)OCO2 | 6.81 |
| CCCCN(CC)CCCNC(=O)c1ccc2c(c1)N(Cc1ccc(C)cc1)C(=O)c1ccccc1S2 | 4.06 |
| Cc1noc(C)c1-c1ccc2ncnc(NC(C)c3ccccc3)c2c1 (stereo not given) | 7.65 |
| COc1ccc(C(=O)Nc2ccc3c(c2)N(C2CCCC2)C(=O)c2ccccc2S3)cc1OC | 1.7 |
| Cc1ccc(CCNC(=O)C2CCCN(C(=O)c3cc4sccc4n3C)C2)cc1 (stereo not given) | 1.7 |
| Cc1cn2nc(-c3nc(C4CCCN(C(=O)c5ccccc5)C4)no3)cc2c(=O)[nH]1 (stereo not given) | 13.6 |
| COc1cc(C2c3c(oc4cc(C)c(C)cc4c3=O)C(=O)N2CCCN2CCOCC2)ccc1O (stereo not given) | 12.7 |
| O=C(NCCCO)c1ccc(-c2ncc3cnc(-c4cccc(F)c4)cn23)cc1 | > 30 |
| CCc1ccc(NC(=O)c2[nH]c(C)c(C(C)=O)c2C)cc1[S+](=O)([O-])Nc1ccccc1C#N | > 30 |
| Cc1ccc(S(=O)(=O)Nc2cnccc2C(=O)Nc2nc(C(=O)O)cs2)cc1 | > 30 |
| Cc1ccc(NC(=O)CSc2ncc(S(=O)(=O)c3ccc(C(C)C)cc3)c(=O)[nH]2)cc1C | 4.98 |
| Cc1ccc(-n2nc3c(=O)n(CCCC(=O)NCc4ccc(F)cc4)nc(C)c3c2C)cc1 | 2.77 |

| Compound | half-life [min] |
| --- | --- |
| COc1ccc(OC)c(Nc2c3c(nc4ccccc24)CCC3)c1 | 1.5 |
| Cc1ccnc(NC(=S)N2CC[C@@H](Nc3cccc(C(F)(F)F)c3)C2)c1 | 3.5 |
| COc1ccccc1C(=O)Nc1ccccc1C(=O)Nc1cccc(S(=O)(=O)C(F)(F)F)c1 | > 30 |
| O=C(Cc1cccc(OC(F)(F)F)c1)Nc1ccc(CCCCc2nnc(NC(=O)Cc3ccccn3)s2)nn1 | 20.9 |
| Cc1c(C(=O)OCCOc2ccccc2)[nH]c2c1C(=O)CC(c1ccccc1)C2 (stereo not given) | 5.25 |
| COc1ccc(-c2cc(C(F)(F)F)nc(SCCC(=O)Nc3cc(C)ccc3O)n2)cc1 | 14.9 |
| Cc1ccc(-n2nc(C)c3c(-c4ccc(O)c(O)c4)c(C#N)c(N)nc32)cc1C | 15 |
| N#Cc1cnc(NS(=O)(=O)c2ccc(NC(=O)Cc3ccc(F)c(Cl)c3)cc2)s1 | > 30 |
| CCOC(=O)N1CCN(Cc2nc3c(c(=O)n(C)c(=O)n3C)n2Cc2cccc(C)c2)CC1 | 4.9 |
| Fc1ccc(CNc2ncnc3onc(-c4ccc(F)cc4)c23)cc1 | 28 |
| O=C1Nc2ccc(I)cc2C1=Cc1cc(Br)c(O)c(Br)c1 | > 30 |
| Cc1nc(NCc2ccco2)nc2c1C(=O)CC(C)C2 (stereo not given) | 2.7 |
| O=c1cc(-c2ccccc2)oc2cc(O)cc(O)c12 | 1.92 |
| CNc1nc2c(s1)C(c1ccc(Cl)cc1)CC(=O)N2 (stereo not given) | 2.07 |
| COc1cccc(NC(=S)N2CCN(c3cccc(C(F)(F)F)c3)CC2)n1 | 17.6 |
| COCc1cc(C)nc(SCC(=O)c2ccc(O)c(O)c2)c1C#N | 19 |
| COc1ccc(Nc2ncnc3c2cnn3-c2ccc(C)cc2)cc1Cl | > 30 |
| N=c1c2c(ncn1-c1ccccc1)Oc1ccc3ccccc3c1C2c1ccc2c(c1)CCO2 (stereo not given) | 10.1 |
| COc1ccc(NS(=O)(=O)c2ccc(C)cc2)c(C(=O)Nc2nc(-c3ccccc3)cs2)c1 | 4.5 |
| CCC(=O)NC(c1cccs1)c1cc([N+](=O)[O-])c2cccnc2c1O (stereo not given) | > 30 |
| CN(C)c1cccc(-c2nc(N3CCC(C(N)=O)CC3)ncc2F)c1 | 1.45 |
| CCCCc1ccc(NC(=O)c2ccc3c(c2)N(S(C)(=O)=O)CC3)cc1 | 4.38 |
| CCN1CCCC1CNC(=O)c1cc(S(=O)(=O)CC)c(N)cc1OC (stereo not given) | > 30 |
| O=C(CCCN1CCC(O)(c2cccc(C(F)(F)F)c2)CC1)c1ccc(F)cc1 | 20.5 |
